Measurements from the NIST ThermoML archive (doi:10.1021/je900596d).

Conditions: 362.9 K, Liquid, Vibrating tube method

FC(F)=C(F)C(F)(F)F [hexafluoropropene]
Conditions | mass density [kg/m3]
5080.8 kPa | 959.79
5112.9 kPa | 961.66
5146 kPa | 963.53
5179.5 kPa | 965.35
5212.8 kPa | 967.09
5246.7 kPa | 968.92
5279.6 kPa | 970.74
5314.8 kPa | 972.51
5347.4 kPa | 974.13
5381.2 kPa | 975.88
5415.7 kPa | 977.6
5518.8 kPa | 982.72
5553.4 kPa | 984.34
5588.2 kPa | 985.96
5623.1 kPa | 987.64
5657.5 kPa | 989.1
5693.5 kPa | 990.75
5727.5 kPa | 992.15
5764.4 kPa | 993.86
5798.2 kPa | 995.17
5832.3 kPa | 996.63
5864.9 kPa | 997.97
5898.1 kPa | 999.35
5930.9 kPa | 1000.69
5965 kPa | 1002.21
6035.1 kPa | 1005.02
6069.8 kPa | 1006.31
6105.1 kPa | 1007.76
6137.3 kPa | 1008.98
6172 kPa | 1010.25
6204.9 kPa | 1011.55
6239.5 kPa | 1012.84
6274 kPa | 1014.15
6308.5 kPa | 1015.34
6343.7 kPa | 1016.69
6377.6 kPa | 1017.96
6413.1 kPa | 1019.11
6447.2 kPa | 1020.3
6480.8 kPa | 1021.47
6516.3 kPa | 1022.68
6550 kPa | 1023.83
6584.4 kPa | 1025.06
6618.1 kPa | 1026.09
6653.8 kPa | 1027.34
6686.8 kPa | 1028.37
6720.5 kPa | 1029.53
6754.6 kPa | 1030.75
6789.1 kPa | 1031.78
6824.9 kPa | 1032.91
6860.3 kPa | 1034.08
6893.3 kPa | 1035.1
6959.4 kPa | 1037.09
6993.3 kPa | 1038.11
7029.7 kPa | 1039.21
7062.9 kPa | 1040.15
7097.9 kPa | 1041.26
7134 kPa | 1042.28
7168.5 kPa | 1043.39
7202.4 kPa | 1044.3
7237.6 kPa | 1045.38
7273.1 kPa | 1046.4
7307.6 kPa | 1047.38
7378 kPa | 1049.33
7411.6 kPa | 1050.3
7482.4 kPa | 1052.26
7514.7 kPa | 1053.12
7547 kPa | 1053.95
7581.8 kPa | 1054.97
7615.4 kPa | 1055.85
7651.7 kPa | 1056.85
7689.7 kPa | 1057.93
7725.6 kPa | 1058.74
7762.3 kPa | 1059.79
7796.7 kPa | 1060.54
7833.4 kPa | 1061.54
7869.9 kPa | 1062.44
7906.3 kPa | 1063.38
7940.8 kPa | 1064.3
7976.7 kPa | 1065.12
8010.3 kPa | 1065.98
8045.2 kPa | 1066.87
8081.6 kPa | 1067.62
8115 kPa | 1068.6
8149.9 kPa | 1069.37
8185.9 kPa | 1070.21
8223.3 kPa | 1071.09
8281.3 kPa | 1072.48
8320.9 kPa | 1073.52
8358.3 kPa | 1074.27
8396.8 kPa | 1075.12
8431.8 kPa | 1075.97
8468.6 kPa | 1076.79
8505.7 kPa | 1077.66
8541.8 kPa | 1078.5
8577.3 kPa | 1079.34
8611.7 kPa | 1080.05
8649.3 kPa | 1080.92
8689.4 kPa | 1081.74
8724.6 kPa | 1082.52
8800.2 kPa | 1084.14
8834.9 kPa | 1084.87
8868.8 kPa | 1085.56
8902.9 kPa | 1086.27
8937.5 kPa | 1087.05
8971.8 kPa | 1087.76
9005.2 kPa | 1088.42
9039.7 kPa | 1089.26
9073.1 kPa | 1089.94
9106.5 kPa | 1090.69
9140.8 kPa | 1091.37
9173.4 kPa | 1092.03
9205.8 kPa | 1092.74
9239.9 kPa | 1093.42
9274.7 kPa | 1094.03
9308.6 kPa | 1094.75
9341.7 kPa | 1095.45
9377.4 kPa | 1096.15
9410.8 kPa | 1096.73
9445.5 kPa | 1097.46
9479.4 kPa | 1098.06
9548.7 kPa | 1099.5
9582.4 kPa | 1100.15
9618.6 kPa | 1100.84
9652.6 kPa | 1101.51
9687.1 kPa | 1102.18
9721.9 kPa | 1102.81
9756.1 kPa | 1103.39
9789.2 kPa | 1104.04
9822.6 kPa | 1104.65
9858.4 kPa | 1105.3
9893.4 kPa | 1106.05
9929.5 kPa | 1106.67
9963.2 kPa | 1107.25
9996.5 kPa | 1107.93
